Biological target: GST-CCNT1 (AA 1–300) (Homo sapiens, UniProt O60563)
Experiment: AlphaLISA disruption of CCNT1-AFF4 peptide interaction
Assay type: binding

Sequence of GST-CCNT1 (AA 1–300) (O60563 1-300): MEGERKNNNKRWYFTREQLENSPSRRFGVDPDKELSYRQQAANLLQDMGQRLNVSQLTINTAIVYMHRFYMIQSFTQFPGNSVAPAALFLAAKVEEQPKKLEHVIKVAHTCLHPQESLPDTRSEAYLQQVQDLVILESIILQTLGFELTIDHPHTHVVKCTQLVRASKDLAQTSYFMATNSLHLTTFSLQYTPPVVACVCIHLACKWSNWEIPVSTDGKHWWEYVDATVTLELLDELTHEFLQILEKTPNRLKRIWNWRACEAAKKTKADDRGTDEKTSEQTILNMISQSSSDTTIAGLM

A Ki of 3.48 µM was found for COc1cccc(C(=O)/C=C(\O)C(=O)Nc2cc(Cl)ccc2C)c1 [4a, (2Z)-N-(5-Chloro-2-methylphenyl)-2-hydroxy-4-(3-methoxyphenyl)-4-oxo-2butenamide] in this work.

From article PMC6422358 (Cell, 2018)
